Assays:
[1] = biological target: T1, SNAP protein tags (Homo sapiens, UniProt P16455, A127T/A154D/C150Q/C62A/E30R/G131K/G132T/G153L/K125A/K32I/L33F/M134L/N157G/Q115S/Q116H/R128A/R135S/S151G/S152D/S159E); test: Fluorescence activation of probe after incubation with corresponding protein tag (SNAP); type: biochemical; settings: probe 5 μM, protein tag 10 μM, 37° C., 1 hr
T1 sequence (P16455 1-182 E30R/K32I/L33F/C62A/Q115S/Q116H/K125A/A127T/R128A/G131K/G132T/M134L/R135S/C150Q/S151G/S152D/G153L/A154D/N157G/S159E): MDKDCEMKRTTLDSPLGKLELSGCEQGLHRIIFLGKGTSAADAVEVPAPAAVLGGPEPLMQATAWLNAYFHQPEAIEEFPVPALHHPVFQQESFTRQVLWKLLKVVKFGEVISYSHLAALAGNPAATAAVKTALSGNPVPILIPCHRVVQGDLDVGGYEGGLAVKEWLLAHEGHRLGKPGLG
Protocol: (§1) Probes were mixed with corresponding protein tags to obtain mixed samples, in which the final probe concentration was 5 μM, and the final protein tag concentration was 10 μM. The mixed samples were incubated 37° C. for 1 hr, fluorescence spectrophotometer was used to detect the change in fluorescence intensity, and the results are shown in Table 1.
(§2) From the quantum yield of probe bound to protein tag, after reacting with the protein tags, the probes of the Examples could be detected to have significant signal enhancement in corresponding excitation transmission channels, the fluorescence activation multiple reached several hundreds to a thousand or more, and the brightness was high, which illustrates that after the probes of the Examples are bound to the protein tags, fluorescence of the probes can be activated, and the probes have good fluorescent molecular switching properties. In contrast, though the fluorescence of the reference probes could also be activated, the quantum yield of activated fluorescence was very low, and the brightness was very poor. In particular, in view of comparison results between probe 98 and reference probe 99, probe 101 and reference probe 102, probe 103 and reference probe 104, probe 105 and reference probe 106, probe 107 and reference probe 108, probe 109 and reference probe 110, probe 111 and reference probe 112, probe 114 and reference probe 115, probe 117 and reference probe 118, probe 120 and reference probe 121 in Table 1, for the same fluorescent dye, when the ligand is connected to the electron donor part of the fluorescent dye, the fluorescence activation brightness of the probe is much higher than the reference probe in which ligand is connected to the electron acceptor part of the fluorescent dye.

[2] = Viscosity responsiveness: fluorescence emission spectra of probes in glycerol and methanol; type: physicochemical; settings: for Emission wavelength: excited at maximum excitation wavelength of each probe; for Fluorescence ratio in glycerol to methanol: probe 1×10^−5 M
Protocol: Probes 1 to 98, 101, 103, 105, 107, 109, 111, 114, 117, and 120, and the reference probes 99, 100, 102, 104, 106, 108, 110, 112, 113, 115, 116, 118, 119, 121, BG-CCVJ and BG-Gly-CCVJ were dissolved in dimethyl sulfoxide, respectively, to prepare mother liquors having a concentration of 1×10^−2 M, to each of which glycerol and methanol were added and uniformly mixed, to prepare solutions finally having a concentration of 1×10^−5 M. Depending on the probes, fluorescence emission spectra of the probes were detected successively with the maximum excitation wavelength of each probe under the same conditions, and the results were shown in Table 1.
That is, these probes are sensitive to viscosity changes and have viscosity responsiveness.

[3] = Fluorescence of free probe prior to binding to a protein tag; type: physicochemical
Protocol: as §1, §2

SMILES	Fluorescence activation multiple [1]	Quantum yield of probe bound to protein tag [1]	Emission wavelength [2]	Fluorescence ratio in glycerol to methanol [2]	Quantum yield of free probe [3]
CN(CCOC(=O)NCc1ccc(COc2nc(N)nc3[nH]cnc23)cc1)c1ccc2nc(/C=C(\C#N)c3nc4ccccc4s3)sc2c1 [probe 55]	382	0.25	651 nm	211	<0.001
CN(CCOC(=O)NCc1ccc(COc2nc(N)nc3[nH]cnc23)cc1)c1ccc(-c2ccc(/C=C(\C#N)c3nc4ccccc4s3)s2)s1 [probe 79]	419	0.31	681 nm	298	<0.001
CN1C(=O)/C(=C/c2ccc(N(C)CCOC(=O)NCc3ccc(COc4nc(N)nc5[nH]cnc45)cc3)cc2)N=C1c1ccccc1 [probe 14]	771	0.18	531 nm	560	<0.001
CN(CCC(=O)NCc1ccc(COc2nc(N)nc3[nH]cnc23)cc1)c1ccc(/C=C(\C#N)C(=O)OC(C)(C)C)cc1 [probe 13]	315	0.29	483 nm	391	<0.001
CC(C)(C)OC(=O)/C(C#N)=C/c1cc2ccc(N(CCC#N)CCOC(=O)NCc3ccc(COc4nc(N)nc5[nH]cnc45)cc3)cc2s1 [probe 36]	488	0.50	570 nm	1258	0.001
CN(CCOC(=O)NCc1ccc(COc2nc(N)nc3[nH]cnc23)cc1)c1ccc(C#C/C=C(\C#N)c2nc3ccccc3o2)cc1 [probe 58]	519	0.27	590 nm	419	<0.001
CN(CCOC(=O)NCc1ccc(COc2cc(Cl)nc(N)n2)cc1)c1ccc2nc(/C=C(\C#N)C(=O)OC(C)(C)C)sc2c1 [probe 52]	435	0.25	625 nm	270	<0.001
CN(CCOC(=O)NCc1ccc(COc2nc(N)nc3[nH]cnc23)cc1)c1cc2sc3cc(/C=C(\C#N)c4nc5ccccc5s4)sc3c2s1 [probe 62]	592	0.32	640 nm	711	<0.001
CN(CCOC(=O)NCc1ccc(COc2nc(N)nc3[nH]cnc23)cc1)c1ccc(/C=C(\C#N)c2nc3ccccc3o2)cc1 [probe 2]	146	0.15	510 nm	410	0.001
CN(CCO)c1cc2sc(/C=C(\C#N)C(=O)NCc3ccc(COc4nc(N)nc5[nH]cnc45)cc3)cc2s1 [Reference Probe 108, reference compound]	30	0.02	555 nm	329	<0.001
N#C/C(=C\c1cc2c3c(c1)CCCN3CCC2)C(=O)NCc1ccc(COc2nc(N)nc3[nH]cnc23)cc1 [Reference Probe BG-CCVJ, reference compound]	170	0.02	501 nm	260	<0.001
CN(CCOC(=O)NCc1ccc(COc2cc(Cl)nc(N)n2)cc1)c1cc2sc(/C=C(\C#N)c3nc4ccccc4s3)cc2s1 [probe 26]	910	0.42	610 nm	1123	<0.001
CC(C)(C)OC(=O)/C(C#N)=C/c1ccc(N(CCOC(=O)NCCCS(=O)(=O)O)CCOC(=O)NCc2ccc(COc3nc(N)nc4[nH]cnc34)cc2)cc1 [probe 11]	270	0.36	481 nm	422	0.0013
CN(CCOC(=O)NCc1ccc(COc2nc(N)nc3[nH]cnc23)cc1)c1ccc2nc(/C=C(\C#N)c3nc4ccccc4o3)sc2c1 [probe 54]	498	0.17	650 nm	391	<0.001
CC1=N/C(=C/c2cc3ccc(N(C)CCOC(=O)NCc4ccc(COc5nc(N)nc6[nH]cnc56)cc4)cc3s2)C(=O)N1C [probe 41]	212	0.31	575 nm	101	0.0015
CN(CCOC(=O)NCc1ccc(COc2nc(N)nc3[nH]cnc23)cc1)c1ccc2nc(/C=C(\C#N)c3nc4ccccc4s3)oc2c1 [probe 47]	358	0.26	627 nm	235	<0.001
CC(C)(C)OC(=O)/C(C#N)=C/c1cc2ccc(N(CCOC(=O)NCCCS(=O)(=O)O)CCOC(=O)NCc3ccc(COc4nc(N)nc5[nH]cnc45)cc3)cc2s1 [probe 39]	335	0.55	570 nm	892	0.0016
CN(CCOC(=O)NCc1ccc(COc2nc(N)nc3[nH]cnc23)cc1)c1ccc(C2=C(C#N)C(=C(C#N)C#N)OC2(C)C)cc1 [probe 18]	265	0.45	535 nm	301	0.0017
CC1=CC(C)(C)N(CCOC(=O)NCc2ccc(COc3nc(N)nc4[nH]cnc34)cc2)c2ccc(/C=C(\C#N)C(=O)OC(C)(C)C)cc21 [probe 87]	515	0.45	575 nm	209	<0.001
CN(CCOC(=O)NCc1ccc(COc2nc(N)nc3[nH]cnc23)cc1)c1cc2c(s1)-c1sc(/C=C(/C#N)C(=O)O)cc1C2(C)C [probe 98]	893	0.78	650 nm	182	<0.001
CN(CCOC(=O)NCc1ccc(COc2nc(N)nc3[nH]cnc23)cc1)c1ccc(-c2ccc(/C=C(\C#N)C(=O)O)s2)s1 [probe 120]	469	0.42	656 nm	421	<0.001

Source: US11209437B2, “Fluorescent probe and preparation method and use thereof” (Fluorescence Diagnosis (shanghai) Biotech Company Ltd., priority 2016, dated 2021)
